For experiment [1], the target named is T1, recombinant human ALK5 (TGF-βR1) protein (Homo sapiens, UniProt P36897).
T1 construct: purchased Life Technologies PR9075A
T1 sequence (P36897 34-503): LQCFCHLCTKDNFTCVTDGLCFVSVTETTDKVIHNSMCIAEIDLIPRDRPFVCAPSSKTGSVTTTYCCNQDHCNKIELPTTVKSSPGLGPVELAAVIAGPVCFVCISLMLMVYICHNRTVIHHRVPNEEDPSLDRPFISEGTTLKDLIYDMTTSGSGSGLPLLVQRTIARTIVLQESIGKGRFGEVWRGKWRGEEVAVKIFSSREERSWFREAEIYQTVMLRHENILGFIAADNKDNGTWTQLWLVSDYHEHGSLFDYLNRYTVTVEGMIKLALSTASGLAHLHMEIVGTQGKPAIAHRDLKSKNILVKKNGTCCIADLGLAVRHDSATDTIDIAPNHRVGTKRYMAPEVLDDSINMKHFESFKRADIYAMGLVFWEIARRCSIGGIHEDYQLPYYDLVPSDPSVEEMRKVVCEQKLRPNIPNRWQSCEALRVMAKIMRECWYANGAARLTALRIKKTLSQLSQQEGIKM
Kind of experiment: Biochemical ALK5 (TGF-βR1) assay to measure pKi (LANCE Ultra ULight kinase assay). The following applies: apparent pKi, converted from pIC50 by Cheng-Prusoff. The method in brief: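 Enzyme preincubated with compound for 60 min at room temperature, then reacted with ATP (125 μM as 5× stock) for 60 min at 37 °C. Stopped with EDTA plus Eu-anti-phospho-Topoisomerase 2-alpha (Thr1342) antibody and read by TR-FRET at 665 nm. pIC50 from a 4-parameter fit, converted to pKi by Cheng-Prusoff.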
Background: TR-FRET usually uses a lanthanide donor and a delayed reading to cut background.

Experiment [2] relates to TGF-β-stimulated SMAD3 phosphorylation in BEAS-2B cells. Kind of experiment: Cellular ALK5 potency assay, inhibition of TGF-β stimulated pSMAD3 formation in BEAS-2B cells. The class given is cell-based. Conditions: Homo sapiens, pSMAD3, TGF-β 10 ng/mL, read-out: BEAS2B pIC50 (converted). The method in brief:
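Cells were seeded overnight, rinsed into HEPES/BSA-supplemented HBSS, and dosed with serially diluted compound for 1 h at 37 °C, 5% CO2. TGF-β stimulation (10 ng/mL final) followed for 30 min, then lysis and AlphaLISA pSMAD3 measurement; potency reported as pIC50.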

For `Cc1cccc(-c2nccc(Nc3ccnc(Nc4cncc(C(=O)OC[C@H]5CCCN5)c4)n3)n2)n1` [Compound 618, [(2R)-pyrrolidin-2-yl]methyl 5-[[4-[[2-(6-methyl-2-pyridyl)pyrimidin-4-yl]amino]pyrimidin-2-yl]amino]pyridine-3-carboxylate], the Ki in experiment [1] was 0.398 to 3.16 nM. Further, the IC50 in experiment [2] is 25.1 to 158 nM.
In the same order, the values of `Cc1cccc(-c2nccc(Nc3ccnc(Nc4cccc(N(C)C(=O)C5CCNCC5)c4)n3)n2)n1` [Compound 497, N-methyl-N-[3-[[4-[[2-(6-methyl-2-pyridyl)pyrimidin-4-yl]amino]pyrimidin-2-yl]amino]phenyl]piperidine-4-carboxamide] are 0.0398 to 0.316 nM and 200 to 1260 nM.
As to `Cc1cccc(-c2nccc(Nc3ccnc(Nc4ccc(Br)cc4)n3)n2)n1` [Compound 234, N2-(4-bromophenyl)-N4-[2-(6-methyl-2-pyridyl)pyrimidin-4-yl]pyrimidine-2,4-diamine], the Ki in experiment [1] is 3.98 to 31.6 nM. Moreover, in experiment [2], the IC50 is 25.1 to 158 nM.
In the same order, the values of `CC[C@@H](C)OC(=O)Cc1cc(Nc2nccc(Nc3ccnc(-c4cccc(C)n4)n3)n2)ccc1N1CCNCC1` [Compound 13, (R)-sec-butyl 2-(5-((4-((2-(6-methylpyridin-2-yl)pyrimidin-4-yl)amino)pyrimidin-2-yl)amino)-2-(piperazin-1-yl)phenyl)acetate] are 0.0398 to 0.316 nM and 25.1 to 158 nM.
Turning to `Cc1cccc(-c2nccc(Nc3ccnc(Nc4ccc(CN5CC(C(=O)O)C5)nc4)n3)n2)n1` [Compound 569, 1-[[5-[[4-[[2-(6-methyl-2-pyridyl)pyrimidin-4-yl]amino]pyrimidin-2-yl]amino]-2-pyridyl]methyl]azetidine-3-carboxylic acid], the Ki in experiment [1] is 0.0398 to 0.316 nM. Also, in experiment [2], the IC50 was 200 to 1260 nM.
In the same order, the values of `Cc1cccc(-c2nccc(Nc3ccnc(Nc4cncc(C(=O)O[C@H]5CCNC5)c4)n3)n2)n1` [Compound 550, [(3S)-pyrrolidin-3-yl] 5-[[4-[[2-(6-methyl-2-pyridyl)pyrimidin-4-yl]amino]pyrimidin-2-yl]amino]pyridine-3-carboxylate] are 0.398 to 3.16 nM and 25.1 to 158 nM.
With `Cc1cccc(-c2nc(CC(=O)NCCO)cc(Nc3ccnc(Nc4ccc(N5CCNCC5)cc4)n3)n2)n1` [Compound 498, N-(2-hydroxyethyl)-2-[2-(6-methyl-2-pyridyl)-6-[[2-(4-piperazin-1-ylanilino)pyrimidin-4-yl]amino]pyrimidin-4-yl]acetamide], the Ki in experiment [1] was 0.398 to 3.16 nM. For the same molecule, the IC50 in experiment [2] is 200 to 1260 nM.
For the molecule `Cc1cccc(-c2nccc(Nc3ccnc(Nc4ccc(CN5CC(C)(N(C)C)C5)cc4)n3)n2)n1` [Compound 262, N2-[4-[[3-(dimethylamino)-3-methyl-azetidin-1-yl]methyl]phenyl]-N4-[2-(6-methyl-2-pyridyl)pyrimidin-4-yl]pyrimidine-2,4-diamine], in experiment [1], the Ki was 0.0398 to 0.316 nM. The IC50 in experiment [2] was 25.1 to 158 nM.
Take `Cc1cccc(-c2nccc(Nc3ccnc(Nc4ccc(NC5CNC5)cc4)n3)n2)n1` [Compound 199, N2-[4-(azetidin-3-ylamino)phenyl]-N4-[2-(6-methyl-2-pyridyl)pyrimidin-4-yl]pyrimidine-2,4-diamine]: in experiment [1], the Ki was 0.0398 to 0.316 nM. In addition, the IC50 in experiment [2] was 25.1 to 158 nM.
In the same order, the values of `Cc1cccc(-c2nccc(Nc3ccnc(Nc4ccc(C5=CCC(N)CC5)cc4)n3)n2)n1` (stereo not drawn) [Compound 151, N2-[4-(4-aminocyclohexen-1-yl)phenyl]-N4-[2-(6-methyl-2-pyridyl)pyrimidin-4-yl]pyrimidine-2,4-diamine] are 0.0398 to 0.316 nM and 25.1 to 158 nM.
For `Cc1cccc(-c2nccc(Nc3ccnc(Nc4ccc(N5CCN(CCO)CC5)cc4)n3)n2)n1` [Compound 534, 2-[4-[4-[[4-[[2-(6-methyl-2-pyridyl)pyrimidin-4-yl]amino]pyrimidin-2-yl]amino]phenyl]piperazin-1-yl]ethanol] the same measures were 0.0398 to 0.316 nM and 25.1 to 158 nM.
For `COC(=O)C1CNCCN1Cc1ccc(Nc2nccc(Nc3ccnc(-c4cccc(C)n4)n3)n2)cc1` (stereo not drawn) [Compound 25, methyl 1-[[4-[[4-[[2-(6-methyl-2-pyridyl)pyrimidin-4-yl]amino]pyrimidin-2-yl]amino]phenyl]methyl] piperazine-2-carboxylate] the same measures were 0.0398 to 0.316 nM and 25.1 to 158 nM.
Turning to `Cc1cccc(-c2nccc(Nc3ccnc(Nc4ccc(C(=O)OC5CNC5)cn4)n3)n2)n1` [Compound 622, azetidin-3-yl 6-[[4-[[2-(6-methyl-2-pyridyl)pyrimidin-4-yl]amino]pyrimidin-2-yl]amino]pyridine-3-carboxylate], the Ki in experiment [1] was 3.98 to 31.6 nM. In addition, in experiment [2], the IC50 is 25.1 to 158 nM.
For `Cc1cccc(-c2nccc(Nc3ccnc(Nc4ccc(C5CCNC5)cc4)n3)n2)n1` (stereo not drawn) [Compound 231, N4-[2-(6-methyl-2-pyridyl)pyrimidin-4-yl]-N2-(4-pyrrolidin-3-ylphenyl)pyrimidine-2,4-diamine] the same measures were 0.0398 to 0.316 nM and 25.1 to 158 nM.
In the same order, the values of `Cc1cccc(-c2nccc(Nc3ccnc(Nc4nc(C(=O)OC[C@H]5CCCN5)cs4)n3)n2)n1` [Compound 593, [(2R)-pyrrolidin-2-yl]methyl 2-[[4-[[2-(6-methyl-2-pyridyl)pyrimidin-4-yl]amino]pyrimidin-2-yl]amino]thiazole-4-carboxylate] are 0.398 to 3.16 nM and 25.1 to 158 nM.
In the same order, the values of `Cc1cccc(-c2nccc(Nc3ccnc(Nc4ccc(CN5CCC(C(=O)O)C5)cc4)n3)n2)n1` (stereo not drawn) [Compound 124, 1-[[4-[[4-[[2-(6-methyl-2-pyridyl)pyrimidin-4-yl]amino]pyrimidin-2-yl]amino]phenyl]methyl] pyrrolidine-3-carboxylic acid] are 0.0398 to 0.316 nM and 25.1 to 158 nM.
As to `Cc1cccc(-c2nccc(Nc3ccnc(Nc4csc(C(=O)OC[C@H]5CCCNC5)c4)n3)n2)n1` [Compound 600, [(3S)-3-piperidyl]methyl 4-[[4-[[2-(6-methyl-2-pyridyl)pyrimidin-4-yl]amino]pyrimidin-2-yl]amino]thiophene-2-carboxylate], the Ki in experiment [1] is 0.0398 to 0.316 nM. In addition, the IC50 in experiment [2] is 25.1 to 158 nM.
In the same order, the values of `Cc1cccc(-c2nccc(Nc3ccnc(Nc4cccc(NC(=O)C5CNC5)c4)n3)n2)n1` [Compound 154, N-[3-[[4-[[2-(6-methyl-2-pyridyl)pyrimidin-4-yl]amino]pyrimidin-2-yl]amino]phenyl]azetidine-3-carboxamide] are 0.0398 to 0.316 nM and 25.1 to 158 nM.
In the same order, the values of `COC(=O)C1CN(Cc2ccc(Nc3nccc(Nc4ccnc(-c5cccc(C)n5)n4)n3)cc2)CCN1C` (stereo not drawn) [Compound 201, methyl 1-methyl-4-[[4-[[4-[[2-(6-methyl-2-pyridyl)pyrimidin-4-yl]amino]pyrimidin-2-yl]amino]phenyl]methyl] piperazine-2-carboxylate] are 0.398 to 3.16 nM and 25.1 to 158 nM.
In the same order, the values of `CNC(=O)[C@H]1CN(c2ccc(Nc3nccc(Nc4ccnc(-c5cccc(C)n5)n4)n3)cc2)CCN1` [Compound 334, (2R)-N-methyl-4-[4-[[4-[[2-(6-methyl-2-pyridyl)pyrimidin-4-yl]amino]pyrimidin-2-yl]amino]phenyl]piperazine-2-carboxamide] are 0.0398 to 0.316 nM and 25.1 to 158 nM.
On to `Cc1cccc(-c2nccc(Nc3ccnc(Nc4ccc(N5CCC(NCc6ccccc6)CC5)cc4)n3)n2)n1` [Compound 450, N2-[4-[4-(benzylamino)-1-piperidyl]phenyl]-N4-[2-(6-methyl-2-pyridyl)pyrimidin-4-yl]pyrimidine-2,4-diamine], for which the Ki in experiment [1] is 0.0398 to 0.316 nM. The IC50 in experiment [2] is 200 to 1260 nM.
In the case of `Cc1cccc(-c2nccc(Nc3ccnc(Nc4ccc(C(=O)OCCN5CCNCC5)cn4)n3)n2)n1` [Compound 581, 2-piperazin-1-ylethyl 6-[[4-[[2-(6-methyl-2-pyridyl)pyrimidin-4-yl]amino]pyrimidin-2-yl]amino]pyridine-3-carboxylate], the Ki in experiment [1] was 3.98 to 31.6 nM. The IC50 in experiment [2] was 25.1 to 158 nM.
With `Cc1cccc(-c2nccc(Nc3ccnc(Nc4ccc(C(=O)N5CCN(C(C)C)CC5)cc4)n3)n2)n1` [Compound 317, (4-isopropylpiperazin-1-yl)-[4-[[4-[[2-(6-methyl-2-pyridyl)pyrimidin-4-yl]amino]pyrimidin-2-yl]amino]phenyl]methanone], the Ki in experiment [1] is 0.0398 to 0.316 nM. The IC50 in experiment [2] was 25.1 to 158 nM.
Regarding `Cc1cccc(-c2nccc(Nc3ccnc(Nc4ccc(O)cc4)n3)n2)n1` [Compound 285, 4-[[4-[[2-(6-methyl-2-pyridyl)pyrimidin-4-yl]amino]pyrimidin-2-yl]amino]phenol], the Ki in experiment [1] is 0.398 to 3.16 nM. Moreover, the IC50 in experiment [2] is 25.1 to 158 nM.

Values taken from patent US20230399312A1, “SUBSTITUTED PYRIMIDINES AND METHODS OF USE” (THERAVANCE BIOPHARMA R&D IP, LLC, priority 2020, published 2023).
